Results published in US12138254B2, “Chronic nightly dosing of lasmiditan for migraine prevention” (Eli Lilly and Company, priority 2018, dated 2024).

System: dural plasma protein extravasation
Experiment: Trigeminal stimulation-induced dural plasma protein extravasation (PPE) in rats
Format: in vivo, Sprague-Dawley rats
From the text: Migraine is a painful condition thought to involve neurogenic inflammation of the dural membrane and activation of the trigeminal nervous system. The 5-HT1F receptor is widely expressed in the CNS and peripheral nerves, including the trigeminal ganglia, dorsal root ganglia and trigeminal nucleus caudalis. Plasma protein extravasation (PPE), one component of neurogenic inflammation, can be induced in the dura of rats by electrically stimulating the trigeminal ganglion. Considering the role of the trigeminal nerve in the physiology of migraine, this study is useful to characterize the ability of lasmiditan-hemisuccinate to block plasma protein extravasation in the dura of rats following electrical stimulation of the trigeminal ganglion.
To investigate the potential of lasmiditan to modify the dysfunction in the target tissue, the duration of effect following a single oral dose of lasmiditan-hemisuccinate was also determined. Electrical stimulation of the trigeminal ganglion of rats and guinea pigs can be used to induce neurogenic inflammation in the meninges (dura). Briefly, unilateral electrical stimulation of either the left or right trigeminal ganglion using electrodes implanted stereotaxically is used to induce ipsilateral neurogenic inflammation and the increased extravasation of plasma proteins.
Lasmiditan-hemisuccinate is dissolved in sterile water. All doses of lasmiditan are reported as free base equivalent doses, accounting for the weight of the salt. Envigo Sprague-Dawley, Sprague-Dawley male rats (250-350 grams, n=4/group) are fasted overnight prior to dosing. The animals are orally gavaged (2 mL/kg dose volume) with test compound or vehicle one hour prior to stimulation time and returned to their cages with only water available. Approximately 50 minutes post-dosing, the rats are anesthetized with Nembutal (65 mg/kg, ip.) and implanted with stainless steel stimulating electrodes (Rhodes Medical Systems, Inc.) to a depth of 9.2 mm. from the dura. The femoral vein is exposed and fluorescein isothiocyanate-labeled bovine serum albumin (FITC-BSA) (20 mg/kg, iv.), is injected into the femoral vein 2 minutes prior to stimulation. The FITC-BSA functions as a marker for protein extravasation. The left trigeminal ganglion is stimulated for 5 minutes at a current intensity of 1.0 mA (5 Hz, 5 msec pulse duration) with a Model S48 Grass Instrument Stimulator with PSIU6 photoelectric isolation unit (Grass-Telefactor). Five minutes following stimulation, a blood sample is collected by cardiac puncture and the rats are sacrificed by exsanguination with 40 ml of saline. One milliliter of blood is collected and placed in a 1.5 ml EDTA coated tube (Fisher Cat. #540734) on ice. Plasma is separated via centrifugation at 10,000 rpm (941 g) for thirty minutes at 4° C. The top of the skull is removed to collect the brain and dural membranes. The brain and plasma samples are frozen at −80° C. until thawed for compound quantification. The membrane samples are removed from both hemispheres, rinsed with water, and spread flat on microscope slides. The slides are dried for 15 minutes on a slide warmer, then the tissues are cover-slipped with a 70% glycerol/water solution. A fluorescence microscope (Zeiss) equipped with a grating monochromator and a spectrophotometer is used to quantify the amount of FITC-BSA dye in each dural sample. The extravasation induced by electrical stimulation of the trigeminal ganglion is an ipsilateral effect (i.e. occurs only on the side of the dura in which the trigeminal ganglion was stimulated). This allows the other (unstimulated) half of the dura to be used as the control. The ratio of extravasation in the dura from the stimulated side versus the unstimulated side is calculated and reported as the extravasation ratio for each animal. The mean extravasation ratio and standard error of the mean (SEM) are calculated for each treatment group. Controls yield a ratio of approximately 1.8. […]

2,4,6-trifluoro-N-[6-(1-methyl-piperidine-4-carbonyl)-pyridin-2-yl]-benzamide hemi-succinate salt [Lasmiditan-hemisuccinate]
inhibition of dural plasma protein extravasation vs vehicle (1 mg/kg po, 1 hour post-dose): statistically different vs vehicle | inhibition of dural plasma protein extravasation vs vehicle (10 mg/kg po, 1 hour post-dose): statistically different vs vehicle | inhibition of dural plasma protein extravasation (one hour following oral administration to rats, 0.1-10 mg/kg): dose-dependently inhibits | inhibition of dural plasma protein extravasation vs vehicle (single 10 mg/kg po, 24 hours post-dose): significantly blocks | inhibition of dural plasma protein extravasation vs vehicle (single 10 mg/kg po, 48 hours post-dose): not effective
